From patent US20130225611A1, “Compositions and Methods for Reducing Cancer Cell Proliferation and Modulating Importin-Beta Function” (THE REGENTS OF THE UNIVERSITY OF CALIFORNIA, priority 2011, published 2013)

Assays:
[1] = system: CRM1-mediated export of NFAT-GFP; test: NFAT-GFP nuclear export after ionomycin washout in HEK 293 cells; type: cell-based, human; conditions: HEK 293, importazole 40 μM, leptomycin B 10 ng/ml, 1 hour after ionomycin washout
Method: For all import and export experiments, HEK 293 cells stably expressing NFAT-GFP were grown on glass coverslips to approximately 50% confluency prior to drug treatment. In all cases, importazole was used at 40 μM and leptomycin B was used at 10 ng/ml. For controls, DMSO was used at a concentration of 0.4%. Ionomycin was added at 1.25 μM. Importazole and leptomycin B treatments were all for 1 hour. In all experiments cells were fixed with 4% formaldehyde prior to fluorescence microscopy. DNA was visualized with 1 μg/ml Hoechst dye.

[2] = system: importin-β/RanGTP-mediated nuclear import; test: nuclear import of GFP-NLS reporter in permeabilized HeLa cells; type: cell-based, human; conditions: 100 μM importazole, permeabilized HeLa cells plus Xenopus egg extract
Method: Because importazole binds importin-β and affects the RanGTP/importin-β interaction, importazole was tested to determine whether it inhibits the nuclear import of any protein bearing a classical nuclear localization signal (NLS). This was first tested using permeabilized HeLa cells, in which nuclear import of a GFP-NLS reporter can be reconstituted in vitro. Digitonin-permeabilized cells were incubated with a GFP-NLS reporter plus Xenopus laevis egg extracts as a source of soluble transport factors including Ran, importin-α, and importin-β.
HeLa cells were permeabilized and treated with an import reporter and cytosol from Xenopus laevis […] as described by Adam et al. (1990) J. Cell Biol. 111:807-816.

[3] = system: nuclear import mediated by transportin; test: nuclear import of M9-YFP in permeabilized HeLa cells; type: cell-based, human; conditions: permeabilized HeLa cells plus Xenopus egg extract
[4] = biological target: T1, CFP-Ran and YFP-importin-β (Homo sapiens, UniProt Q14974); test: pull-down of CFP-Ran with S-tagged YFP-importin-β; type: binding; conditions: importazole 200 μM
T1 construct: made in house; host or cells: BL21 cells (E. coli)
Method: For pulldown experiments to detect interaction between CFP-Ran and YFP-importin-β, all reactions were performed in buffer consisting of PBS+2 mM MgCl2, 5% glycerol, 0.01% NP-40, and 1.0 mM DTT. Reaction buffer was combined with the following components in this order: CFP-Ran, RCC1, BSA, GDP or GTP, importazole or 100% DMSO, and YFP-importin-β, yielding the following final concentrations: CFP-Ran: 2.5 nM, RCC1: 20 nM, BSA: 0.1 mg/ml, GDP or GTP: 200 μM, importazole: 200 μM, […]: 5.0 nM. Reactions were incubated for 10 min at room temperature, […] of S-protein agarose was added, and then incubated for an additional 30 min on a rotator before pelleting the agarose at 3,000 rpm for 1 min. The supernatant was removed followed by three washes with […] reaction buffer. The S-protein pellet was resuspended in 15 μl of sodium dodecyl sulfate-polyacrylamide gel electrophoresis (SDS PAGE) sample buffer and boiled briefly. After spinning down the S-protein pellet, 10 μl of the sample was analyzed by SDS PAGE.

[5] = system: HeLa cells; test: mitotic spindle defects in HeLa cells (tubulin and DNA staining); type: cell-based, human; conditions: HeLa cells treated for one hour
Method: To examine the consequences of importazole on mitosis, HeLa cells treated for one hour were fixed and stained for tubulin and chromosomes. […] Spindle positioning was not previously attributed to the Ran pathway and this phenotype may be a consequence of astral microtubule disruption by importazole.
Cells were fixed in 4% formaldehyde and 0.1% glutaraldehyde in PHEM (60 mM PIPES, 25 mM HEPES, 10 mM EGTA, 2 mM MgSO4) at 37° C. for 15 minutes followed by permeabilization with 0.1% triton X-100 for 2 minutes at room temperature. Cells were then washed and blocked (PHEM+5% FBS+0.2% saponin) and stained by standard techniques using the E7-A anti β tubulin antibody (Developmental Studies Hybridoma Bank) diluted 1:1000 and Hoechst dye.

[6] = system: HeLa cells; test: HeLa cell viability assay (CellTiter-Glo); type: cell-based; conditions: Homo sapiens, treatment over a 24-hour period
Method: For HeLa cell viability assays to obtain an IC50, 10,000 actively growing HeLa cells per well were transferred to opaque white 96 well tissue culture plates at a final volume of 100 μl per well in DMEM plus 4% fetal bovine serum and 1% penicillin/streptomycin. Cells were allowed to grow at 37° C. for 24 hours. Individual wells were then treated for 12 hours with one of the following conditions: 1% DMSO, 5, 10, 20, 30, 40, 50, 60, 75, 100 μM IPZ. Following this treatment, the media was replaced and cells were treated for another 12 hours under the same conditions. The plates were then allowed to equilibrate to room temperature for 30 min, after which 100 μl of room temperature CellTiter-Glo reagent from the Promega CellTiter-Glo Luminescent Cell Viability Assay kit was added to each well. Plates were shaken for 2 min, incubated at room temperature for 10 min, then read on a luminometer. The average background signal for the plate was subtracted from the value of each individual well, and the resulting values were normalized to the signal level of the DMSO containing well.

IC50 [6]: ~22.5 µM
Structure (SMILES): CC(Nc1nc(N2CCCC2)nc2ccccc12)c1ccccc1 (stereo not shown) [importazole, (1-phenyl-ethyl)-(2-pyrrolidin-1-yl-quinazolin-4-yl)-amine]
CRM1-mediated export of NFAT-GFP [1]: occurred efficiently | nuclear import of GFP-NLS reporter [2]: blocked import | transportin-mediated nuclear import (M9-YFP) [3]: did not block nuclear import | effect on binding of CFP-RanGTP and YFP-importin-β in pull-down assays [4]: did not obviously affect the binding of the two proteins | cells displaying off-center spindles [5]: more than 40% | defects in spindle assembly, chromosome alignment and spindle size ([5]; 0 to 40 μM): dose-dependent defects
